Test [1] is described as follows: Cytotoxic concentration against human and other tumor cell lines. It counts as functional.
The nature of test [2]: Effective concentration against Abeta(sw) peptide. It counts as functional.
The target in the next test is Beta-secretase (BACE) (Homo sapiens, UniProt Q9Y5Z0+P56817). Kind of test: Beta-secretase inhibitory activity as inhibition of secreted alkaline phosphatase in HEK293 cells expressing SEAP-APP fusion protein. Type of test: functional, cell-based.

As a reminder, the CC50 is the concentration that lowers cell viability or growth by half. Lower therefore signals greater toxicity to the cells. The EC50 is the concentration at which the effect is half-maximal. Read a high EC50 as a less potent agent.

In test [1], `CCSc1nsc(NC(=O)Nc2cccc(C(C)=O)c2)n1` returned a CC50 of 23.3 µM. The same compound came in with an EC50 in test [2] of 2.6 µM.

The compound `CCOCCCNC(=O)c1cc(NC(=O)Nc2cccc(Cl)c2)ccc1N(C)C` showed a CC50 in test [1] of 11.1 µM. Further, the response in test [2] was half-maximal at 2.6 µM (EC50).

`COCCCNC(=O)c1cc(NC(=O)Nc2cc(C(F)(F)F)cc(C(F)(F)F)c2)ccc1N(C)C`: the values for the EC50 (on Beta-secretase (BACE); in test [2]) were 27 µM and 3.2 µM, respectively. Moreover, in test [1], the midpoint of cytotoxicity, the CC50, lay at 24.6 µM.

In test [1], `CN(C)c1ccc(NC(=O)Nc2cc(C(F)(F)F)cc(C(F)(F)F)c2)cc1C(=O)NCCCN1CCOCC1` had a CC50 of 12.5 µM. The EC50 in test [2] was determined as 3 µM.
